Measured values as given in patent US7772271B2 (priority 2004, dated 2010).
Where two headings read alike, the source gives them in different places.

Legend:
[1] = test system: wild-type poliovirus; assay type: cell-based
[2] = test system: PV IRES; assay: cells; assay type: cell-based, poliovirus
[3] = 1 μM compound, Hela cells infected with wild-type poliovirus at MOI 0.1, treated for one day, CPE score
[4] = 10 μM compound, Hela cells infected with wild-type poliovirus at MOI 0.1, treated for one day, CPE score
[5] = 100 μM compound, Hela cells infected with wild-type poliovirus at MOI 0.1, treated for one day, CPE score
[6] = Enterovirus C, HEK-293T, 20 h, read-out: WTPV mono luc IC50 (μM)

In the case of `COc1ccc(-n2cc(C#N)c3ccc(OC)cc32)cc1` [compound 4], the “WT-PV CPE (1 μM)*” value [1] is reported as 1, the “WT-PV CPE (10 μM)*” value [1] is reported as 2 and the “WT-PV CPE (100 μM)*” value [1] is reported as 3. For the same compound, the IC50 ([2]; read-out: WTPV mono luc IC50) was 0.8 µM.
For `CCn1cc(C#N)c2ccc(OC)cc21` [compound 5, 1-ethyl-6-methoxy-1H-indole-3-carbonitrile], the “WT-PV CPE (1 μM)*” value [1, 3] was 1, the “WT-PV CPE (10 μM)*” value [1, 4] was 2 and the “WT-PV CPE (100 μM)*” value [1, 5] was 3. The IC50 [2, 6] was 9 µM.
With `CCOc1ccc2c(C#N)cn(CC)c2c1` [compound 9, 6-ethoxy-1-ethyl-1H-indole-3-carbonitrile] the “WT-PV CPE (1 μM)*” value [1, 3] was 2, the “WT-PV CPE (10 μM)*” value [1, 4] was 2 and the “WT-PV CPE (100 μM)*” value [1, 5] was 3. It also gave an IC50 [2, 6] of over 100 µM.
For `CCn1cc(C#N)c2ccc(OC(C)C)cc21` [compound 10], the “WT-PV CPE (1 μM)*” value [1] was 2, the “WT-PV CPE (10 μM)*” value [1] was 2 and the “WT-PV CPE (100 μM)*” value [1] was 3. It also gave an IC50 ([2]; read-out: WTPV mono luc IC50) of over 100 µM.
With `CCn1c(-c2ccc(OC)cc2)c(C#N)c2ccc(OC)cc21` [compound 19] the “WT-PV CPE (1 μM)*” value [1] was 1, the “WT-PV CPE (10 μM)*” value [1] was 2 and the “WT-PV CPE (100 μM)*” value [1] was 3. It also gave an IC50 ([2]; read-out: WTPV mono luc IC50) of 15 µM.
In the case of `COc1ccc2c(C#N)c(C)n(-c3ccc4c(c3)OCO4)c2c1` [compound 24], the “WT-PV CPE (1 μM)*” value [1] is reported as 2, the “WT-PV CPE (10 μM)*” value [1] is reported as 2 and the “WT-PV CPE (100 μM)*” value [1] is reported as 3. The IC50 ([2]; read-out: WTPV mono luc IC50) was 1.5 µM.
Compound `CCOc1ccc2c(I)c(-c3ccc(NC(=O)OC(C)C)cc3)n(CC3CC3)c2c1` [compound 2634, [4-(1-cyclopropylmethyl-6-ethoxy-3-iodo-1H-indol-2-yl)-phenyl]-carbamic acid isopropyl ester] has a melting point of 135 to 140 °C.
`CCOc1ccc2c(C#CC3CC3)c(-c3ccc(NC(=O)OC(C)C)cc3)n(CC3CC3)c2c1` [compound 2635, [4-(3-cyclopropylethynyl-1-cyclopropylmethyl-6-ethoxy-1H-indol-2-yl)-phenyl]-carbamic acid isopropyl ester] gave a melting point of 175 to 180 °C.
Compound `CCOc1ccc2c(F)c(-c3ccc(NC(=O)OC(C)C)cc3)n(CC3CC3)c2c1` [compound 2640, [4-(1-Cyclopropylmethyl-6-ethoxy-3-fluoro-1H-indol-2-yl)-phenyl]-carbamic acid isopropyl ester] has a melting point of 178 to 184 °C.
With `CCOc1ccc2c(Br)c(-c3ccc(NC(=O)OC(C)C)cc3)n(CC3CC3)c2c1` [compound 2691, [4-(3-bromo-1-cyclopropylmethyl-6-ethoxy-1H-indol-2-yl)-phenyl]-carbamic acid isopropyl ester] the melting point was 128 to 132 °C.
Work on `CC(OC(=O)Nc1ccc(-c2c(C#N)c3ccc(OCCS(C)(=O)=O)cc3n2C2CCC2)cc1)C1CC1` (stereo not shown) [compound 2695, {4-[3-Cyano-1-cyclobutyl-6-(2-methanesulfonyl-ethoxy)-1H-indol-2-yl]-phenyl}-carbamic acid 1-cyclopropyl-ethyl ester] yielded a melting point of 135 to 140 °C.
In the case of `CCSc1ccc2c(C#N)c(-c3ccc(NC(=O)O[C@H](C)C4CC4)cc3)n(C3CCC3)c2c1` [compound 2720, (R)-[4-(3-cyano-1-cyclobutyl-6-ethylsulfanyl-1H-indol-2-yl)-phenyl]-carbamic acid 1-cyclopropyl-ethyl ester], the melting point is reported as 120 to 122 °C.
Compound `CC(C)OC(=O)Nc1ccc(-c2c(C#N)c3ccc(N4CCOCC4)cc3n2C2CCC2)cc1` [compound 2800, [4-(3-cyano-1-cyclobutyl-6-morpholin-4-yl-1H-indol-2-yl)-phenyl]-carbamic acid isopropyl ester] has a melting point of 206 to 208 °C.
With `COc1ccc2c(Cl)c(-c3ccc(NC(=O)OC(C)C)cc3)n(CC3CC3)c2c1` [compound 2804, [4-(3-chloro-1-cyclopropylmethyl-6-methoxy-1H-indol-2-yl)-phenyl]-carbamic acid isopropyl ester] the melting point was 171 to 177 °C.
`CC(OC(=O)Nc1ccc(-c2cc3ccc(Oc4ncccn4)cc3n2C2CCC2)cc1)C(F)(F)F` (stereo not shown) [compound 2888, {4-[1-cyclobutyl-6-(pyrimidin-2-yloxy)-1H-indole-2-yl]-phenyl}-carbamic acid 2,2,2-trifluoro-1-methyl-ethyl ester] showed a melting point of 99 to 101 °C.
Work on `C[C@@H](OC(=O)Nc1ccc(-c2c(C#N)c3ccc(OCS(C)(=O)=O)cc3n2C2CCC2)cc1)C1CC1` [compound 2988, (R)-[4-(3-cyano-1-cyclobutyl-6-methanesulfonylmethoxy-1H-indol-2-yl)-phenyl]-carbamic acid 1-cyclopropyl-ethyl ester] yielded a melting point of 218 to 223 °C.
In the case of `Cc1csc(Nc2ccc(-c3c(C#N)c4ccc(Oc5ncccn5)cc4n3C3CCC3)cc2)n1` [compound 3180, 1-cyclobutyl-2-[4-(4-methyl-thiazol-2-ylamino)-phenyl]-6-(pyrimidin-2-yloxy)-1H-indole-3-carbonitrile], the melting point is reported as 223 to 225 °C.
For `CC(C)OC(=O)Nc1ccc(-c2c(C#N)c3ccc(OC4CCS(=O)(=O)CC4)cc3n2C2CCC2)cc1` [compound 3182, {4-[3-cyano-1-cyclobutyl-6-(1,1-dioxo-hexahydro-1λ^6-thiopyran-4-yloxy)-1H-indol-2-yl]-phenyl}-carbamic acid isopropyl ester], the melting point was 245 to 249 °C.
`Cc1cc(Nc2ccc(-c3c(C#N)c4ccc(Oc5ncccn5)cc4n3C3CCC3)cc2)n(C)n1` [compound 3285, 1-cyclobutyl-2-[4-(2,5-dimethyl-2H-pyrazol-3-ylamino)-phenyl]-6-(pyrimidin-2-yloxy)-1H-indole-3-carbonitrile] showed a melting point of 236 to 238 °C.
